In ChEMBL document CHEMBL5360547 (Eur J Med Chem, 2023):
Calls of active or inactive are those of the source. The calls are words filed in the database; no cut-off is given here.

Tests used:
[1] = test system: Cortical neurone; assay: Cytotoxicity against primary C57BL/6J E14-17 mouse Cortical neuron assessed as decrease in cell viability upto 50 uM incubated for 24 hrs by CCK-8 assay; format: toxicity, cell-based
[2] = test system: Cortical neurone; assay: Neuroprotective activity against oxygen glucose deprivation induced ischemic stroke model in primary C57BL/6J E14-17 mouse Cortical neurons assessed as increase in cell viability at 0.5 to 20 uM incubated for 24 hrs by CCK-8 assay; format: functional, cell-based; details: dose 0.5-20 µM
[3] = test system: Cortical neurone; assay: Cytotoxicity against primary C57BL/6J E14-17 mouse Cortical neuron assessed as decrease in cell viability at 1 uM incubated for 24 hrs by CCK-8 assay relative to control; format: toxicity, cell-based
[4] = test system: Cortical neurone; assay: Cytotoxicity against primary C57BL/6J E14-17 mouse Cortical neuron assessed as decrease in cell viability at 10 uM incubated for 24 hrs by CCK-8 assay relative to control; format: toxicity, cell-based
[5] = test system: Cortical neurone; assay: Neuroprotective activity against oxygen glucose deprivation induced ischemic stroke model in primary C57BL/6J E14-17 mouse Cortical neurons assessed as increase in cell viability at 10 uM incubated for 24 hrs by CCK-8 assay (Rvb= 57.43 +/- 2.54 %); format: functional
[6] = test system: Cortical neurone; assay: Neuroprotective activity against oxygen glucose deprivation induced ischemic stroke model in primary C57BL/6J E14-17 mouse Cortical neurons assessed as increase in cell viability at 1 uM incubated for 24 hrs by CCK-8 assay (Rvb= 57.43 +/- 2.54 %); format: functional
[7] = test system: SH-SY5Y; assay: Neuroprotective activity against oxygen glucose deprivation induced ischemic stroke model in human SH-SY5Y cells assessed as cell viability at 2 uM incubated for 24 hrs by CCK-8 assay; format: functional; details: read-out: Activity

SMILES: CN(C)[C@H]1CC[C@@H](c2ccc(Cl)c(Cl)c2)c2ccccc21
- Activity [1]: Non-Toxic
- Activity [2]: Active

SMILES: Clc1ccc(CN[C@@H]2CC[C@@H](c3ccc(Cl)c(Cl)c3)c3ccccc32)cc1Cl
- Activity [3]: 101.08%
- Activity [4]: 105.41%
- Activity [5]: 55.64%
- Activity [6]: 58.46%

SMILES: CC(N[C@@H]1CC[C@@H](c2ccc(Cl)c(Cl)c2)c2ccccc21)c1ccccc1 (stereo partly specified)
- Activity [3]: 98.48%
- Activity [4]: 45.32%
- Activity [5]: 51.75%
- Activity [6]: 45.67%

SMILES: Clc1ccc([C@@H]2CC[C@@H](NCCN3CCNCC3)c3ccccc32)cc1Cl
- Activity [3]: 90.76%
- Activity [4]: 31.8%
- Activity [5]: 28.28%
- Activity [6]: 56.76%

SMILES: CN[C@H]1CC[C@@H](c2ccc(Cl)c(Cl)c2)c2ccccc21
- Activity [2]: Active

SMILES: CN[C@@H]1CC[C@@H](c2ccc(Cl)c(Cl)c2)c2ccccc21 (racemic)
- Activity [3]: 94.5%
- Activity [4]: 92.08%
- Activity [5]: 65.74%
- Activity [6]: 59.29%

SMILES: CCCCCCCCN(C)[C@@H]1CC[C@@H](c2ccc(Cl)c(Cl)c2)c2ccccc21 (racemic)
- Activity [1]: Non-Toxic
- Activity [2]: Active

SMILES: CCCCCCCCN(C)[C@H]1CC[C@@H](c2ccc(Cl)c(Cl)c2)c2ccccc21 (racemic)
- Activity [2]: Active

SMILES: CN[C@H]1CC[C@@H](c2ccc(Cl)c(Cl)c2)c2ccccc21 (racemic) [SERTRALINE]
- Activity [3]: 96.32%
- Activity [4]: 92.98%
- Activity ([5]; 24 h, 10 µM): 45.76%
- Activity ([6]; 24 h, 1 µM): 60.36%

SMILES: NCCN[C@@H]1CC[C@@H](c2ccc(Cl)c(Cl)c2)c2ccccc21 (relative stereo)
- Activity [3]: 103.68%
- Activity [4]: 24.73%
- Activity [5]: 3.53%
- Activity [6]: 24.79%

SMILES: NCCCCCCN[C@@H]1CC[C@@H](c2ccc(Cl)c(Cl)c2)c2ccccc21 (relative stereo)
- Activity [3]: 48.84%
- Activity [4]: 22.62%
- Activity [5]: 3.43%

SMILES: COc1ccc(CN[C@@H]2CC[C@@H](c3ccc(Cl)c(Cl)c3)c3ccccc32)cc1OC (relative stereo)
- Activity [1]: Toxic
- Activity [3]: 99.79%
- Activity [4]: 95.48%
- Activity [5]: 66.65%
- Activity [6]: 62.06%
- Activity [2]: Dose-Dependent Effect

SMILES: Clc1ccc([C@@H]2CC[C@@H](NCc3ccc4c(c3)OCO4)c3ccccc32)cc1Cl (relative stereo)
- Activity [3]: 104.95%
- Activity [4]: 95.94%
- Activity [5]: 57.62%
- Activity [6]: 63.19%

SMILES: Clc1ccc([C@@H]2CC[C@@H](NCc3cccc4ccccc34)c3ccccc32)cc1Cl (relative stereo)
- Activity [3]: 95.27%
- Activity [4]: 96.52%
- Activity [5]: 65.01%
- Activity [6]: 61.36%

SMILES: COc1ccc(CN[C@@H]2CC[C@@H](c3ccc(Cl)c(Cl)c3)c3ccccc32)cc1 (relative stereo)
- Activity [3]: 98.78%
- Activity [4]: 85.78%
- Activity [5]: 60.68%
- Activity [6]: 56.57%

SMILES: CC(C)(C)OC(=O)N1CCN(CCN[C@@H]2CC[C@@H](c3ccc(Cl)c(Cl)c3)c3ccccc32)CC1 (relative stereo)
- Activity [3]: 100.27%
- Activity [4]: 93.92%
- Activity [5]: 57.97%
- Activity [6]: 63.76%

SMILES: CCCCN[C@@H]1CC[C@@H](c2ccc(Cl)c(Cl)c2)c2ccccc21 (relative stereo)
- Activity [3]: 95.75%
- Activity [4]: 94.94%
- Activity [5]: 50.99%
- Activity [6]: 54.27%

SMILES: COc1cccc(CN[C@@H]2CC[C@@H](c3ccc(Cl)c(Cl)c3)c3ccccc32)c1 (relative stereo)
- Activity [3]: 95.52%
- Activity [4]: 97.09%
- Activity [5]: 47.87%
- Activity [6]: 51.08%

SMILES: NCCCCN[C@@H]1CC[C@@H](c2ccc(Cl)c(Cl)c2)c2ccccc21 (relative stereo)
- Activity [3]: 90.11%
- Activity [4]: 22.9%
- Activity [5]: 3.07%
- Activity [6]: 33.3%

SMILES: Cc1ccc(CN[C@@H]2CC[C@@H](c3ccc(Cl)c(Cl)c3)c3ccccc32)cc1 (relative stereo)
- Activity [3]: 92.92%
- Activity [4]: 84.46%
- Activity [5]: 59.01%
- Activity [6]: 60.9%

SMILES: FC(F)(F)c1cccc(CN[C@@H]2CC[C@@H](c3ccc(Cl)c(Cl)c3)c3ccccc32)c1 (relative stereo)
- Activity [3]: 90.68%
- Activity [4]: 85.87%
- Activity [5]: 59%
- Activity [6]: 65.74%

SMILES: Clc1ccc([C@@H]2CC[C@@H](NC3CCCCC3)c3ccccc32)cc1Cl (relative stereo)
- Activity [1]: Toxic
- Activity [3]: 97.01%
- Activity [4]: 102.77%
- Activity [5]: 69.46%
- Activity [6]: 61.62%
- Activity [2]: Dose-Dependent Effect

SMILES: Cc1cccc(CN[C@@H]2CC[C@@H](c3ccc(Cl)c(Cl)c3)c3ccccc32)c1 (relative stereo)
- Activity [1]: Toxic
- Activity [3]: 96.85%
- Activity [4]: 102.54%
- Activity [5]: 81.18%
- Activity [6]: 65.53%
- Activity [2]: Dose-Dependent Effect

SMILES: Clc1ccc([C@@H]2CC[C@@H](NCC3CCCCC3)c3ccccc32)cc1Cl (relative stereo)
- Activity [3]: 100.42%
- Activity [4]: 103.51%
- Activity [5]: 62.02%
- Activity [6]: 64.56%

SMILES: CCCCCC(C)N[C@@H]1CC[C@@H](c2ccc(Cl)c(Cl)c2)c2ccccc21 (relative stereo)
- Activity [3]: 89.48%
- Activity [4]: 84.74%
- Activity [5]: 60.07%
- Activity [6]: 58.02%

SMILES: O=C(Cc1ccccc1)N[C@@H]1CC[C@@H](c2ccc(Cl)c(Cl)c2)c2ccccc21 (relative stereo)
- Activity [1]: Toxic
- Activity [2]: Active

SMILES: CCCCCCN[C@@H]1CC[C@@H](c2ccc(Cl)c(Cl)c2)c2ccccc21 (relative stereo)
- Activity [1]: Toxic
- Activity [3]: 98.87%
- Activity [4]: 113.14%
- Activity [5]: 81.04%
- Activity [6]: 62.38%
- Activity [2]: Dose-Dependent Effect

SMILES: C=CCC(=O)N[C@@H]1CC[C@@H](c2ccc(Cl)c(Cl)c2)c2ccccc21 (relative stereo)
- Activity [1]: Toxic
- Activity [2]: Active

SMILES: Clc1ccc([C@@H]2CC[C@@H](NCCCCc3ccccc3)c3ccccc32)cc1Cl (relative stereo)
- Activity [3]: 98.28%
- Activity [4]: 94.37%
- Activity [5]: 58.59%
- Activity [6]: 57.11%

SMILES: CC(=O)N[C@@H]1CC[C@@H](c2ccc(Cl)c(Cl)c2)c2ccccc21 (relative stereo)
- Activity [1]: Toxic
- Activity [3]: 102.6%
- Activity [4]: 101.23%
- Activity [5]: 77.31%
- Activity [6]: 66.22%
- Activity [2]: Dose-Dependent Effect

SMILES: Clc1ccc([C@@H]2CC[C@@H](NC3CC3)c3ccccc32)cc1Cl (relative stereo)
- Activity [3]: 100.03%
- Activity [4]: 109.93%
- Activity [5]: 66.66%
- Activity [6]: 62.49%

SMILES: CCCC(=O)N[C@@H]1CC[C@@H](c2ccc(Cl)c(Cl)c2)c2ccccc21 (relative stereo)
- Activity [1]: Toxic
- Activity [2]: Active

SMILES: O=C(CCCCl)N[C@@H]1CC[C@@H](c2ccc(Cl)c(Cl)c2)c2ccccc21 (relative stereo)
- Activity [3]: 92.02%
- Activity [4]: 84.35%
- Activity [5]: 58.31%
- Activity [6]: 63.86%

SMILES: CC(C)(C)c1ccc(CN[C@@H]2CC[C@@H](c3ccc(Cl)c(Cl)c3)c3ccccc32)cc1 (relative stereo)
- Activity [3]: 93.91%
- Activity [4]: 93.23%
- Activity [5]: 60.98%
- Activity [6]: 56.78%

SMILES: CC(C)(C)OC(=O)NCCN[C@@H]1CC[C@@H](c2ccc(Cl)c(Cl)c2)c2ccccc21 (relative stereo)
- Activity [3]: 98.85%
- Activity [4]: 94.48%
- Activity [5]: 54.41%
- Activity [6]: 58.81%

SMILES: Clc1ccc([C@@H]2CC[C@@H](NCCc3c[nH]c4ccccc34)c3ccccc32)cc1Cl (relative stereo)
- Activity [3]: 104.13%
- Activity [4]: 96.14%
- Activity [5]: 59.42%
- Activity [6]: 52.97%

SMILES: CC(C)CN[C@@H]1CC[C@@H](c2ccc(Cl)c(Cl)c2)c2ccccc21 (relative stereo)
- Activity [3]: 96.1%
- Activity [4]: 73.99%
- Activity [5]: 30.22%
- Activity [6]: 56.47%

SMILES: Clc1ccc([C@@H]2CC[C@@H](N3CCCC3)c3ccccc32)cc1Cl (relative stereo)
- Activity [1]: Toxic
- Activity [2]: Active

SMILES: CCCN[C@@H]1CC[C@@H](c2ccc(Cl)c(Cl)c2)c2ccccc21 (relative stereo)
- Activity [3]: 96.43%
- Activity [4]: 100.55%
- Activity [5]: 55.53%
- Activity [6]: 62.89%

SMILES: N[C@@H]1CC[C@@H](c2ccc(Cl)c(Cl)c2)c2ccccc21 (relative stereo) [DASOTRALINE]
- Activity [3]: 99.05%
- Activity [4]: 95.38%
- Activity [5]: 56.94%
- Activity [6]: 57.14%

SMILES: CC1=NN(c2ccccc2)C(=O)C1 [EDARAVONE]
- Activity [3]: 98.61%
- Activity [4]: 96.6%
- Activity [5]: 64.15%
- viability at 2 µM [7]: 71.3%
- Activity [6]: 64.39%
